Assay results from patent US5112944A, “Cyclic tetrapeptide and process for preparing the same” (Shionogi & Co., Ltd., priority 1989, dated 1992).
Where a SMILES comes first, the peptide text is derived from it. [ ]: non-standard residue; d: D form. Aoe = N[C@@H](CCCCCC(=O)[C@@H]1CO1)C(=O)O; dPip = O=C(O)[C@H]1CCCCN1

Key:
[1] = tested on: NIH3T3 cells transformed with sis oncogene; assay: Detransformation activity (return of transformed cells to normal flat morphology); format: cell-based
Experimental: (§1) The employed culture solution was prepared by adding 9.5 g of DALBECCO'S EAGLE MEM medium (made by NISSUI SEIYAKU CO., LTD.) and 20 ml of 7% sodium bicarbonate to 1 l of distilled water and then adding fetal bovine serum (made by Flow Laboratories, Inc., U.S.A.) to be 10% by volume at the final concentration.
(§2) To each well of a 12-well plastic dish made by Flow Laboratories, Inc., 2 ml of the above-mentioned culture solution, 2×10^4 cells/ml of NIH3T3 cells transformed with sis oncogene (provided by National Cancer Institute of the U.S.; Science, 218, 1131 (1982)) and each test compound (RF-1023-A or RF-1023-B) in each concentration (5 to 400 ng/ml) were added and cultured at 37° C. in 5% CO2 incubator. Twenty-four hours later the morphology of the cells was observed and detransformation activity (activity for inhibiting transformation of NIH3T3 cells transformed with the oncogene and returning to normal flat morphology of cells) was estimated. Two days after the incubation, cells subjected to the medium containing RF-1023-A were dispersed with 0.05% trypsin, and the cell number was measured by means of hemocytometer.

[2] = tested on: NIH3T3 cells transformed with sis oncogene; assay: Cell number / cell proliferation of transformed cells (hemocytometer); format: cell-based; details: for Cell number: 2 days after the incubation; for Percentage of increase: 2 days, untreated = 100
Experimental: as §1, §2

[3] = 24 hours, lowest concentration tested

## O=C1N[C@@H](Cc2ccccc2)C(=O)N2CCC[C@@H]2C(=O)N[C@@H](CCCCCC(=O)[C@@H]2CO2)C(=O)N[C@H]1Cc1ccccc1 [RF-1023-B] (cyclo(FF[dP][Aoe]))
[1]; [3]
  Concentration at which detransformation activity is shown: 5 ng/mL

## CC(=O)NCCCCCCNC(C)=O [hexamethylene bisacetamide, reference compound]
[1]; same experiment system
  Concentration at which detransformation activity is shown: 3e+06 ng/mL

## O=C1N[C@@H](Cc2ccccc2)C(=O)N2CCCC[C@@H]2C(=O)N[C@@H](CCCCCC(=O)[C@@H]2CO2)C(=O)N[C@H]1Cc1ccccc1 [RF-1023-A] (cyclo([Aoe]FF[dPip]))
[1]; [3]
  Concentration at which detransformation activity is shown: 5 ng/mL
[2]; 5 ng/ml test compound
  Cell number: 3.8 × 10^5
  Percentage of increase: 35%
[2]; 50 ng/ml test compound
  Cell number: 3.4 × 10^5
  Percentage of increase: 29%
[2]; 100 ng/ml test compound
  Cell number: 1.5 × 10^5
  Percentage of increase: 0%
[2]; 200 ng/ml test compound
  Cell number: 1.1 × 10^5
  Percentage of increase: -6%
[2]; 400 ng/ml test compound
  Cell number: 1.1 × 10^5
  Percentage of increase: -6%
